From patent US20120252792A1, “METHODS AND COMPOSITIONS FOR MODULATING RHO-MEDIATED GENE TRANSCRIPTION” (THE REGENTS OF THE UNIVERSITY OF MICHIGAN, priority 2009, published 2012)

Legend:
Format in all cases: cell-based, human
[1] = tested on: Rho/MKL1 pathway; assay: SRE.L-firefly luciferase reporter (dual luciferase assay), Gα12QL-transfected PC-3 cells; settings: for inhibition at 10 µM: read-out: % inh SRE.L (10 μM); for inhibition at 100 µM: read-out: % inh SRE.L (100 μM)
Procedure: (§1) Dual Luciferase Assay: Seed PC-3 prostate cancer cells (40,000 cells/well) were grown in 96-well plates in 10% FBS containing DMEM medium. Cells were transiently transfected with the Gα12QL activator of the Rho/MKL1 pathway, along with the SRE.L-firefly luciferase reporter construct for 6 hours. Additionally, cells were co-transfected with the TK-Renilla luciferase reporter as an indicator of non-specific compound effects. Various concentrations of selected compounds were added to the 96-well plates. Plates were incubated for 19 hours at 37° C. and 5% CO2 in 0.5% FBS containing DMEM medium. Cells were lysed with 1X Passive Lysis Buffer (Promega). Plates were incubated for 30 minutes at room temperature. Luminescence counts were read with a Victor2 (Perkin-Elmer) plate reader.

[2] = tested on: PC-3 prostate cancer cells; assay: WST1 cell viability assay; settings: PC-3 cells, just before lysis; for inhibition at 10 µM / inhibition at 100 µM: Homo sapiens; for inhibition at 10 µM: PC-3, 10 μM, read-out: % inh WST-1 (10 μM); for inhibition at 100 µM: PC-3, 100 μM, read-out: % inh WST-1 (100 μM)
Procedure: WST1 Cell Viability Assay: One hour prior to cell lysis for the dual luciferase assay, 10 μl per well of WST1 reagent (Roche) was added to the 96-well plates. Plates were incubated for 1 hour at 37° C. and 5% CO2. Cell viability was measured by WST1 absorbance at 450 nm with a Victor2 (Perkin-Elmer) plate reader.

[3] = tested on: TK-Renilla luciferase reporter; assay: TK-Renilla (pRL-TK) luciferase reporter, indicator of non-specific compound effects; settings: PC-3 cells; for inhibition at 10 µM / inhibition at 100 µM: Homo sapiens, PC-3, 19 h; for inhibition at 10 µM: read-out: % inh PRL-TK (10 μM); for inhibition at 100 µM: read-out: % inh PRL-TK (100 μM)
Procedure: as §1

[4] = Homo sapiens, 19 h, 10 μM, DMSO alone = 0%
[5] = Homo sapiens, 19 h, 100 μM, DMSO alone = 0%

SMILES	IC50 ([1]; Homo sapiens, 19 h)	inhibition at 10 µM [1, 4]	inhibition at 100 µM [1, 5]	inhibition at 10 µM [2]	inhibition at 100 µM [2]	inhibition at 10 µM [3]	inhibition at 100 µM ([3]; 100 μM)	% inh SRE.L (10 μM) ([1]; 10 μM, 19 hrs, DMSO alone = 0%)	% inh SRE.L (100 μM) ([1]; 100 μM, 19 hrs, DMSO alone = 0%)	IC50 ([1]; 19 hrs)	% inh WST-1 (100 μM) ([2]; 100 μM, 100 µM)	% inh PRL-TK (100 μM) ([3]; 100 μM, 19 hrs)
O=C(NCc1csc(-c2ccc(Cl)cc2)n1)c1cc(C(F)(F)F)cc(C(F)(F)F)c1 [Compound 18, N-((2-(4-chlorophenyl)thiazol-4-yl)methyl)-3,5-bis(trifluoromethyl)benzamide]	4.1 µM	50%	45%	0%	0%	39%	38%	–	–	–	–	–
O=C(NCCCOc1ccc(Cl)cc1)c1cc(C(F)(F)F)cc(C(F)(F)F)c1 [Compound 19, N-(3-(4-chlorophenoxy)propyl)-3,5-bis(trifluoromethyl)benzamide]	8.9 µM	55%	86%	0%	38%	28%	65%	–	–	–	–	–
O=C(CCNCc1cc(C(F)(F)F)cc(C(F)(F)F)c1)Nc1ccc(Cl)cc1 [Compound 22, 3-(3,5-bis(trifluoromethyl)benzylamino)-N-(4-chlorophenyl)propanamide]	8.1 µM	64%	100%	0%	92%	12%	91%	–	–	–	–	–
O=C(CC1CC(c2cc(C(F)(F)F)cc(C(F)(F)F)c2)=NO1)Nc1ccc(Cl)cc1 (stereo not shown) [Compound 23, 2-(3-(3,5-bis(trifluoromethyl)phenyl)-4,5-dihydroisoxazol-5-yl)-N-(4-chlorophenyl)acetamide]	4.6 µM	77%	87%	0%	66%	58%	73%	–	–	–	–	–
O=C(CC1CCCCN1C(=O)c1cc(C(F)(F)F)cc(C(F)(F)F)c1)Nc1ccc(Cl)cc1 (stereo not shown) [Compound 26, 2-(1-(3,5-bis(trifluoromethyl)benzoyl)piperidin-2-yl)-N-(4-chlorophenyl)acetamide]	9.9 µM	41%	85%	0%	27%	0%	76%	–	–	–	–	–
O=C(Nc1ccc(Cl)cc1)C1CCN(C(=O)c2cc(C(F)(F)F)cc(C(F)(F)F)c2)C1 (stereo not shown) [Compound 27, 1-(3,5-bis(trifluoromethyl)benzoyl)-N-(4-chlorophenyl)pyrrolidine-3-carboxamide]	15.6 µM	30%	100%	0%	86%	14%	92%	–	–	–	–	–
FC(F)(F)c1cc(CNCCCNc2ccc(Cl)cc2)cc(C(F)(F)F)c1 [Compound 28, N^1-(3,5-bis(trifluoromethyl)benzyl)-N^3-(4-chlorophenyl)propane-1,3-diamine]	9.1 µM	65%	100%	0%	89%	6%	90%	–	–	–	–	–
O=C(NCCC(=O)N1CCc2cc(Cl)ccc21)c1cc(C(F)(F)F)cc(C(F)(F)F)c1 [Compound 29, N-(3-(5-chloroindolin-1-yl)-3-oxopropyl)-3,5-bis(trifluoromethyl)benzamide]	13 µM	15%	40%	0%	0%	0%	1%	–	–	–	–	–
O=C(CCNC(=O)c1cc(C(F)(F)F)cc(C(F)(F)F)c1)Nc1ccc(Cl)cc1 [Compound 30, N-(3-(4-chlorophenylamino)-3-oxopropyl)-3,5-bis(trifluoromethyl)benzamide]	25 µM	44%	66%	0%	6%	0%	15%	38%	64%	38 µM	10%	22%
O=C(Nc1ccc(Cl)cc1)c1ccc(NC(=O)c2cc(C(F)(F)F)cc(C(F)(F)F)c2)cc1 [Compound 38]	> 100 µM	0%	–	0%	–	0%	–	–	–	–	–	–
O=C(CCc1cnnn1-c1cc(C(F)(F)F)cc(C(F)(F)F)c1)Nc1ccc(Cl)cc1 [Compound 59]	> 100 µM	-3%	4.7%	-9.5%	-11.8%	-31.8%	-13.3%	–	–	–	–	–
